In data set [1] the test system is SARS-CoV-2 original Wuhan strain (hCoV-19/Japan/TY/WK-521,2019). Nature of the data set: Antiviral activity assay in Vero E6 cells, qRT-PCR of supernatant. It is filed as cell-based. The following applies: Severe acute respiratory syndrome coronavirus 2, Vero C1008, Vero E6, 72 h pretreatment, MOI 0.02, 48 h pi, compound concentration (for 5-ALA/SFC the 5-ALA concentration, ratio 4:1).

For data set [2], the system named is SARS-CoV-2. Set-up: method as in PMID 31781665. The following applies: SFC only; cited from earlier work.
On the set-up of data set [3]: method as in PMID 11961050. The following applies: oral route; cited from earlier work.
The nature of data set [4]: Cell viability assay (MTT). Type of data set: cell-based. The following applies: African green monkey, Vero E6 cells; Vero E6, 3 days, in parallel with Delta antiviral assay; 5-ALA concentration. Here is the method:
(§1) Vero E6 cells in 96-well plates were treated with samples for 3 days, and a cell viability assay was conducted in parallel with an antiviral assay. To determine the concentration that triggered a 50% reduction in cell survival (CC50), the results of the cell viability assay were evaluated by 3-(4,5-dimethylthiazol-2-yl)-2,5-diphenyl tetrazolium bromide according to the manufacturer’s instructions (Promega, Madison, WI, USA). Optical density was measured at 570 nm using a microplate reader (Synergy H1 M; BioTek Instruments, Winooski, VT, USA). Cell viability was determined using the following equation: cell viability (%) = (sample value)/(cell control) × 100. In addition, viral inhibition by 50% (IC50) was calculated as viral inhibition (%) = quantity of virus copies in (virus control − sample)/virus control × 100.

Data set [5] has as its system Vero E6 cells. The data set is described as follows: Cell viability assay (MTT). It is filed as cell-based. Conditions: Vero E6, 3 days, 5-ALA concentration. Here is the method: as §1

This is an account of results in article PMC8739347 (Tropical Medicine and Health, 2022).

What is called IC50 is the concentration that gives 50% inhibition. Consider `CCC(CC)COC(=O)[C@H](C)N[P@](=O)(OC[C@H]1O[C@@](C#N)(c2ccc3c(N)ncnn23)[C@H](O)[C@@H]1O)Oc1ccccc1` [remdesivir, Remdesivir], for which the IC50 in data set [1] was 0.1 to 1 µM.
As to Sodium ferrous citrate [SFC], in data set [2], the antiviral activity entry is on record as “did not show antiviral activity”.
For orientation: CC50 means the concentration giving 50% cytotoxicity. As for `NCC(=O)CCC(=O)O` [5-ALA, 5-aminolevulinic acid], the bioavailability result in data set [3] was “high bioavailability”. Moreover, the CC50 at 3 days in data set [4] was above 2000 µM. Moreover, the cytotoxic concentration (CC50) in data set [5] (in parallel with Alpha antiviral assay), in data set [5] (in parallel with Beta antiviral assay), in data set [5] (in parallel with Gamma antiviral assay) and in data set [5] (in parallel with Wuhan antiviral assay) was above 2000 µM throughout. Besides, the IC50 in data set [1] is 207 µM.
